Assay results as given in patent US20210132079A1, “ANTIBODY” (UCB Biopharma SRL, priority 2015, published 2021).
Entries after “also recorded” stand apart in the source; their conditions may differ.

Key:
soluble form of TNFα = biological target: T1, soluble form of TNFα (Homo sapiens, UniProt P01375); experiment: SPR on Biacore 4000 against immobilised TNFα; assay type: binding; conditions: concentration of up to 100 μM
T1 construct: immobilised soluble form of CD40L and the soluble form of TNFα by SPR
Procedure: (§1) In another experiment, BIO8898 was tested against the immobilised soluble form of CD40L and the soluble form of TNFα by SPR on a Biacore 4000 machine.

soluble form of CD40L = biological target: T2, soluble form of CD40L (Homo sapiens, UniProt P29965); experiment: SPR on Biacore 4000 against immobilised CD40L; conditions: read-out: geomean IC50 for binding against CD40L
T2 sequence (P29965 113-261 limits assumed): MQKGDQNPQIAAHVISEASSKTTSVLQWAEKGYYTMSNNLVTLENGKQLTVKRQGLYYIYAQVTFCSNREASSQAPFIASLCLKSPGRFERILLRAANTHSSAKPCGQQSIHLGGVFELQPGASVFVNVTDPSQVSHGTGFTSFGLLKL
Procedure: as §1

T1 sequence (P01375 77-233 limits assumed): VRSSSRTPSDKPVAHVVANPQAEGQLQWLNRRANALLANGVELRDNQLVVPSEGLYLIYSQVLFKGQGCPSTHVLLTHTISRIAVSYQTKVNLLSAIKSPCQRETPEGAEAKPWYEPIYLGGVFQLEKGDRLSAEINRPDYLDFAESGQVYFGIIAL

IC50 (soluble form of CD40L): 17 µM
Structure (SMILES): O=C(NCc1cccc(-c2ccccc2)c1)c1cc(-c2cc(C(=O)NC(C(=O)O)C3CCCCC3)nc(C(=O)N3CCCC3CN3CCCC3)c2)cc(C(=O)N2CCCC2CN2CCCC2)n1 (centres unmarked) [BIO8898]
binding to TNFα (soluble form of TNFα): found not to bind; also recorded: no binding was detected
